Reference: US20250154127A1, “BICYCLIC HETEROARYL COMPOUNDS AND USES THEREOF” (ETERN BIOPHARMA (SHANGHAI) CO., LTD., priority 2022, published 2025)

Columns and labels:
[1] = target: TEAD1(210-426) binding to YAP(50-100) (Homo sapiens, UniProt P28347); test: TR-FRET Assay for TEAD1(210-426) Binding to YAP(50-100); conditions: His-TEAD 10 nM, YAP-Biotin peptide 50 nM
Description: Compounds were performed 3 fold serial dilution, 12 data points, added to 384 well white plate. The final DMSO concentration is 1%, duplicate for each concentration. Then His-TEAD protein was added to a final concentration of 10 nM, and allowed to preincubate for 30 minutes at room temperature. Assay buffer was added as background control.
YAP-Biotin peptide was added to a final concentration of 50 nM, mixed well, incubate 10 minutes at room temperature. The YAP(50-100) peptide sequence used here is named SEQ ID NO: 2
The Europium-labeled anti-6×His antibody and APC labeled streptavidin were diluted according to the instructions, this detection solution was mixed 1:1 with reaction solution, incubated 1 hour at room temperature.
TR-FRET measurements were made on an Envision (Perkin Elmer), using an excitation wavelength of 320 nm and emissions read at 620 nm and 665 nm. The ratio of the 665 nm to the 620 nm multiply 10000 provides a normalized TR-FRET signal that represents the extent of binding.
Half inhibition concentration IC50 value was calculated by XLfit software.

MSTO-211H cells = test: Proliferation Assay (CellTiter-Glo Luminescent Cell Viability Assay); type: cell-based; conditions: Homo sapiens, 96 hours treatment
Description: Example 5: Proliferation Assay
The effect of compound on YAP driven cancer cells proliferation was assessed in MSTO-211H (ATCC, CRL-2081TM) or NCI-H2052 (ATCC, CRL-5915TM) cells using CellTiter-Glo Luminescent Cell Viability Assay (Promega, G7570).
Briefly, individual cell lines were seeded in 96-well cell culture plate at the density of 1,500 cells per well and cultured in RPMII1640 (Gibco-A10491-01)+10% FBS (Gibco-10099-141C)+1% Penicillin-Streptomycin (5,000 U/mL, Gibco-15070-063) overnight at 37° C. with 5% CO2 before adding the compounds.
Following incubation, serial dilutions of compounds dissolved in DMSO were added to each well (3-fold dilution with 9 concentration points). The final concentration of DMSO present in this assay is below 0.5% and make duplication for each compound treated well.
Following 96 hours treatment, compound mediated cell growth inhibition was measured using CellTiter-Go Luminescent Cell Viability Assay (Promega, G7570). […] CellTiter-Glo in each assay well, mix and incubate at room temperature for 10 min. Read signal using EnVision® Multilabel Plate Reader (Perkin Elmer).
For data analysis, cell proliferation inhibition was calculated using the following formula:
Inhibition %=(1−(Compound treated well CTG signal/DMSO well CTG signal))*100.
IC50 values were calculated using GraphPad Prism software using a four-parameter fit model.

TEAD1(210-426) binding to YAP(50-100), sequence (P28347 209-426): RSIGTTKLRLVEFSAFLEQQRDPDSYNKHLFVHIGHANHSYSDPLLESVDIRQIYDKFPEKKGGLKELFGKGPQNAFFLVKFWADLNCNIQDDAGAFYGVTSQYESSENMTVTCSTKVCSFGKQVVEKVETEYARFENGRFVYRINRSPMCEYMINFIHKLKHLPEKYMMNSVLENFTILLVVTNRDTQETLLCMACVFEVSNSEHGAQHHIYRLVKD

| SMILES | IC50 [1] [nM] | IC50 (MSTO-211H cells) [nM] |
| --- | --- | --- |
| C[C@@H](c1ccccn1)n1ccc(-c2nn(-c3ccc(OC(F)(F)F)cc3)c3cccnc23)cc1=O [Compound 1, (S)-1-(1-(pyridin-2-yl)ethyl)-4-(1-(4-(trifluoromethoxy)phenyl)-1H-pyrazolo[4,3-b]pyridin-3-yl)pyridin-2(1H)-one] | ≤ 100 | ≤ 1000 |
| C[C@@H](c1ccccn1)n1ccc(-c2nn(-c3ccc(C(F)(F)F)cc3)c3cccnc23)cc1=O [Compound 2, (S)-1-(1-(pyridin-2-yl)ethyl)-4-(1-(4-(trifluoromethyl)phenyl)-1H-pyrazolo[4,3-b]pyridin-3-yl)pyridin-2(1H)-one] | ≤ 100 | ≤ 1000 |
| C[C@H](c1ccccn1)n1ccc(-c2nn(-c3ccc(C(F)(F)F)cc3)c3cccnc23)cc1=O [Compound 3, (R)-1-(1-(pyridin-2-yl)ethyl)-4-(1-(4-(trifluoromethyl)phenyl)-1H-pyrazolo[4,3-b]pyridin-3-yl)pyridin-2(1H)-one] | 100 to 1000 | 1000 to 10000 |
| C[C@@H](c1ccccn1)n1ccc(-c2nn(-c3ccc(F)cc3)c3cccnc23)cc1=O [Compound 4, (S)-4-(1-(4-fluorophenyl)-1H-pyrazolo[4,3-b]pyridin-3-yl)-1-(1-(pyridin-2-yl)ethyl)pyridin-2(1H)-one] | 100 to 1000 | 1000 to 10000 |
| C[C@@H](c1ccccn1)n1ccc(-c2nn(-c3ccc(Cl)cc3)c3cccnc23)cc1=O [Compound 5, (S)-4-(1-(4-chlorophenyl)-1H-pyrazolo[4,3-b]pyridin-3-yl)-1-(1-(pyridin-2-yl)ethyl)pyridin-2(1H)-one] | ≤ 100 | 1000 to 10000 |
| C[C@@H](c1ccccn1)n1ccc(-c2nn(-c3cccc(C(F)(F)F)c3)c3cccnc23)cc1=O [Compound 6, (S)-1-(1-(pyridin-2-yl)ethyl)-4-(1-(3-(trifluoromethyl)phenyl)-1H-pyrazolo[4,3-b]pyridin-3-yl)pyridin-2(1H)-one] | 100 to 1000 | 1000 to 10000 |
| CCC(c1ccccn1)n1ccc(-c2nn(-c3ccc(C(F)(F)F)cc3)c3cccnc23)cc1=O (stereo not shown) [Compound 7, 1-(1-(pyridin-2-yl)propyl)-4-(1-(4-(trifluoromethyl)phenyl)-1H-pyrazolo[4,3-b]pyridin-3-yl)pyridin-2(1H)-one] | ≤ 100 | 1000 to 10000 |
| CC(C)n1ccc(-c2nn(-c3ccc(C(F)(F)F)cc3)c3cccnc23)cc1=O [Compound 8, 1-isopropyl-4-(1-(4-(trifluoromethyl)phenyl)-1H-pyrazolo[4,3-b]pyridin-3-yl)pyridin-2(1H)-one] | 100 to 1000 | ≤ 1000 |
| C[C@@H](c1ccccn1)n1ccc(-n2nc(-c3ccc(C(F)(F)F)cc3)c3ncccc32)cc1=O [Compound 9, (S)-1-(1-(pyridin-2-yl)ethyl)-4-(3-(4-(trifluoromethyl)phenyl)-1H-pyrazolo[4,3-b]pyridin-1-yl)pyridin-2(1H)-one] | ≤ 100 | ≤ 1000 |
| Cn1ccc(-c2nn(-c3ccc(C(F)(F)F)cc3)c3cccnc23)cc1=O [Compound 10, 1-methyl-4-(1-(4-(trifluoromethyl)phenyl)-1H-pyrazolo[4,3-b]pyridin-3-yl)pyridin-2(1H)-one] | > 1000 |  |
| C[C@@H](c1ccccn1)n1ccc(-c2nn(-c3ccc(C(F)(F)F)cc3)c3ccccc23)cc1=O [Compound 11, (S)-1-(1-(pyridin-2-yl)ethyl)-4-(1-(4-(trifluoromethyl)phenyl)-1H-indazol-3-yl)pyridin-2(1H)-one] | ≤ 100 | ≤ 1000 |
| O=c1cc(-c2nn(-c3ccc(C(F)(F)F)cc3)c3ccccc23)ccn1Cc1ccccn1 [Compound 12, 1-(pyridin-2-ylmethyl)-4-(1-(4-(trifluoromethyl)phenyl)-1H-indazol-3-yl)pyridin-2 (1H)-one] | ≤ 100 | 1000 to 10000 |
| C[C@@H](c1cccnc1)n1ccc(-c2nn(-c3ccc(C(F)(F)F)cc3)c3ccccc23)cc1=O [Compound 13, (S)-1-(1-(pyridin-3-yl)ethyl)-4-(1-(4-(trifluoromethyl)phenyl)-1H-indazol-3-yl)pyridin-2(1H)-one] | ≤ 100 | ≤ 1000 |
| C[C@@H](c1ccncc1)n1ccc(-c2nn(-c3ccc(C(F)(F)F)cc3)c3ccccc23)cc1=O [Compound 14, (S)-1-(1-(pyridin-4-yl)ethyl)-4-(1-(4-(trifluoromethyl)phenyl)-1H-indazol-3-yl)pyridin-2(1H)-one] | ≤ 100 | ≤ 1000 |
| O=c1cc(-c2nn(-c3ccc(C(F)(F)F)cc3)c3ccccc23)ccn1Cc1ncccn1 [Compound 15, 1-(pyrimidin-2-ylmethyl)-4-(1-(4-(trifluoromethyl)phenyl)-1H-indazol-3-yl)pyridin-2(1H)-one] | ≤ 100 | ≤ 1000 |
| Cc1cc(Cn2ccc(-c3nn(-c4ccc(C(F)(F)F)cc4)c4ccccc34)cc2=O)n(C)n1 [Compound 16, 1-((1,3-dimethyl-1H-pyrazol-5-yl)methyl)-4-(1-(4-(trifluoromethyl)phenyl)-1H-indazol-3-yl)pyridin-2(1H)-one] | 100 to 1000 | ≤ 1000 |
| Nc1ccnc(Cn2ccc(-c3nn(-c4ccc(C(F)(F)F)cc4)c4ccccc34)cc2=O)n1 [Compound 17, 1-((4-aminopyrimidin-2-yl)methyl)-4-(1-(4-(trifluoromethyl)phenyl)-1H-indazol-3-yl)pyridin-2(1H)-one] | ≤ 100 | ≤ 1000 |
| O=c1cc(-c2nn(-c3ccc(C(F)(F)F)cc3)c3ccccc23)ccn1Cc1cccnc1 [Compound 18, 1-(pyridin-3-ylmethyl)-4-(1-(4-(trifluoromethyl)phenyl)-1H-indazol-3-yl)pyridin-2(1H)-one] | ≤ 100 | ≤ 1000 |
| C[C@@H](c1ccccn1)n1ccc(-c2nn(-c3ccc(C(F)(F)F)cc3)c3ccc(C(=O)O)cc23)cc1=O [Compound 21] | 100 to 1000 |  |
| COC(=O)c1ccc2c(c1)c(-c1ccn([C@@H](C)c3ccccn3)c(=O)c1)nn2-c1ccc(C(F)(F)F)cc1 [Compound 22, methyl (S)-3-(2-oxo-1-(1-(pyridin-2-yl)ethyl)-1,2-dihydropyridin-4-yl)-1-(4-(trifluoromethyl)phenyl)-1H-indazole-5-carboxylate] | 100 to 1000 |  |
| C[C@@H](c1ccccn1)n1ccc(-c2nn(-c3ccc(C(F)(F)F)cc3)c3ccc(C(N)=O)cc23)cc1=O [Compound 23] | 100 to 1000 |  |
| C[C@@H](c1ccccn1)n1ccc(-c2nn(-c3ccc(C(F)(F)F)cc3)c3ccc(C#N)cc23)cc1=O [Compound 25] | 100 to 1000 |  |
| COC(=O)c1ccc2c(-c3ccn([C@@H](C)c4ccccn4)c(=O)c3)nn(-c3ccc(C(F)(F)F)cc3)c2c1 [Compound 26, methyl (S)-3-(2-oxo-1-(1-(pyridin-2-yl)ethyl)-1,2-dihydropyridin-4-yl)-1-(4-(trifluoromethyl)phenyl)-1H-indazole-6-carboxylate] | 100 to 1000 |  |
| O=c1cc(-c2nn(-c3ccc(C(F)(F)F)cc3)c3ccccc23)ccn1C1CCOCC1 [Compound 27] | > 1000 |  |
| C[C@@H](c1ccccn1)n1ccc(-n2nc(-c3ccc(C(F)(F)F)cc3)c3cccnc32)cc1=O [Compound 32, (S)-1-(1-(pyridin-2-yl)ethyl)-4-(3-(4-(trifluoromethyl)phenyl)-1H-pyrazolo[3,4-b]pyridin-1-yl)pyridin-2(1H)-one] | ≤ 100 |  |
| C[C@@H](c1ccccn1)n1ccc(-c2nc(-c3ccc(C(F)(F)F)cc3)n3ccccc23)cc1=O [Compound 35, (S)-1-(1-(pyridin-2-yl)ethyl)-4-(3-(4-(trifluoromethyl)phenyl)imidazo[1,5-a]pyridin-1-yl)pyridin-2(1H)-one] | ≤ 100 |  |
| Cn1cc(Cn2ccc(-c3nn(-c4ccc(C(F)(F)F)cc4)c4ccccc34)cc2=O)cn1 [Compound 36, 1-((1-methyl-1H-pyrazol-4-yl)methyl)-4-(1-(4-(trifluoromethyl)phenyl)-1H-indazol-3-yl)pyridin-2(1H)-one] | 100 to 1000 |  |
| CN(CCO)c1ccnc(Cn2ccc(-c3nn(-c4ccc(C(F)(F)F)cc4)c4ccccc34)cc2=O)n1 [Compound 79, 1-((4-((2-hydroxyethyl)(methyl)amino)pyrimidin-2-yl)methyl)-4-(1-(4-(trifluoromethyl)phenyl)-1H-indazol-3-yl)pyridin-2(1H)-one] |  | ≤ 1000 |
| CNc1nccc(Cn2ccc(-c3nn(-c4ccc(C(F)F)cc4)c4ncccc34)cc2=O)n1 [Compound 144, 4-(1-(4-(difluoromethyl)phenyl)-1H-pyrazolo[3,4-b]pyridin-3-yl)-1-((2-(methylamino)pyrimidin-4-yl)methyl) pyridin-2(1H)-one] |  | ≤ 1000 |
